Results on 2 molecules are retold here after patent publication US10183011B2, “Anti-depression compounds” (Board of Regents of the University of Texas System, priority 2009, dated 2019).

Molecules are shown by their SMILES. Values joined by “and” are separate entries in the source; they are usually repeats but may differ in a detail not shown here. Equal values may be shown once. Read-outs that look alike come from different tables or passages of the source.

Data set [1] is described as follows: Pharmacokinetic analysis in plasma and whole brain tissue. Format: in vivo, mouse. The following applies: for concentration at 5 h: brain, five hours after dosing, read-out: brain level. From the text: Pharmacokinetic analysis of Example 45 Compound in plasma and whole brain tissue was undertaken after single IV, IP and oral gavage administrations. […] These favorable pharmacological properties facilitated a dose response experiment wherein daily oral administration of Example 45 Compound to adult mice was monitored for both brain levels of the chemical and pro-neurogenic efficacy (FIG. 7).

Data set [2] has as its system R6/2 transgenic mice. Kind of data set: R6/2 model of Huntington's disease. Format: in vivo, mouse. How it is done:
FIG. 26A and FIG. 26B. Example 45 Compound (P7C3) Provides Therapeutic Benefit in Animal Model of Huntington's Disease. 40 female R6/2 mice were included in each of VEH (vehicle) and P7C3 (10 mg/kg P7C3 i.p. twice daily) groups, and treatment was begun at 6 weeks of age. […] All measurements were conducted blind to genotype and treatment group.
In one hypothesis, P7C3 (and its derivates) may enhance the formation of neurons in the mature hippocampus by preventing death rather than promoting proliferation of these cells. As such, P7C3 is “proneurogenic” by virtue of its neuroprotective activity. It is also possible that P7C3 (and its derivates) prevents cell death and promotes cell proliferation. It was evaluated whether P7C3 might provide therapeutic benefit in R6/2 mice. […] General condition score was determined by a 3 point scoring system that was conducted blind to genotype and treatment group (score of 0=fur looks groomed, normal posture (no hunch), clear eyes, alert; score of 1=fur beginning to stick up, slight hunch; score of 2=piloerection (fur sticking up), unkempt fur, hunch in back or neck area, crusty eyes). Death was monitored twice daily, and defined as either when animals were found dead, or when they were unable to right themselves after being placed on their backs with movement subsequently initiated by gentle prodding for 30 seconds. […]

In data set [3] the test system is newborn cells in the dentate gyrus. Briefly: Chronic social defeat stress (CSDS): DG cellular proliferation (BrdU) and apoptosis (AC3). Format: in vivo, mouse (Ghsr-null and wild-type). From the text: FIG. 40. Effects of P7C3 on DG cellular proliferation and apoptosis following CSDS. (a) Protocol schematic. (b-e) BrdU-immunoreactive and AC3-immunoreactive cell counts in the dorsal and ventral DG of CSDS-exposed and non-CSDS-exposed mice treated with P7C3 vs. vehicle. Group sizes indicated. (f-k) Representative photomicrograph images of double-immunolabeled (BrdU and AC3) ventral DG sections. (l-q) Magnified images of immunoreactive cells (AC3, leftward-facing arrow; BrdU, rightward-facing arrow). Scale bar in (k; 100 μm) pertains to (f-k), in (q; 25 μm) pertains to (l-q). *P<0.05, **P<0.01, ***P<0.001, as compared to respective non-CSDS-exposed, vehicle-treated control group.
It was next investigated whether protecting neural precursor cells from CSDS-associated apoptosis might help protect against the depressive-like phenotype. To test this idea, P7C3 was utilized, a neuroprotective aminopropyl carbazole that elevates hippocampal neurogenesis by blocking apoptosis without affecting the proliferation rate of hippocampal neural precursor cells in the dentate gyrus. A twice-daily schedule of intraperitoneal P7C3 injections (20 mg/kg/d in divided doses) was initiated two days prior to CSDS and continued throughout the 10 day procedure for both wild-type and Ghsr-null littermates. […]
CSDS was performed similar to methods used previously in the lab (J. C. Chuang et al., Ghrelin mediates stress-induced food-reward behavior in mice. J Clin Invest 121, 2684 (2011)). […] Ethovision 3.0 software (Noldus, Leesburg, Va.) measured the duration spent in the interaction zone or in the corners. […]
Immunohistochemistry and quantification were performed as described previously (J. C. Chuang et al., Ghrelin mediates stress-induced food-reward behavior in mice. J Clin Invest 121, 2684 (2011); J. E. Malberg et al., Chronic antidepressant treatment increases neurogenesis in adult rat hippocampus. J Neurosci 20, 9104 (2000); A. A. Pieper et al., Discovery of a proneurogenic, neuroprotective chemical. Cell 142, 39 (2010)). […]

Regarding `OC(CNc1ccccc1)Cn1c2ccc(Br)cc2c2cc(Br)ccc21` (centres unmarked) [Example 45 Compound], the concentration at 5 h in data set [1] (mouse, oral 1 mg/kg) was 213 nM and 101 ng/g; in data set [1] (mouse, oral 2.5 mg/kg), 1.13 µM and 534 ng/g; in data set [1] (mouse, oral 5 mg/kg), 1.35 µM and 640 ng/g. The half-life in data set [1] (mouse, plasma, after IP delivery, read-out: plasma terminal half life (converted)) is 6.7 h. In data set [1] (single IV, IP and oral gavage administrations), the blood-brain barrier crossing entry was “readily able to cross the blood-brain barrier”. Also, the oral bioavailability entry in data set [1] (single oral gavage administration) is recorded as “orally bioavailable”.

With `OC(CNc1ccccc1)Cn1c2ccc(Br)cc2c2cc(Br)ccc21` (centres unmarked) [Example P7C3], the “survival of R6/2 mice” value in data set [2] (10 mg/kg i.p. twice daily from 6 weeks of age) is “delays animal death by about three weeks”. In addition, the general condition score result in data set [2] (at 14 weeks of age) was “improved general condition score and appearance”. In data set [3] (20 mg/kg/d i.p. in divided doses), the “AC3+ cells in the ventral DG after CSDS” value is “blocked by P7C3 administration”. Further, in data set [3] (20 mg/kg/d i.p. in divided doses, wild type and Ghsr-null mice), the “BrdU+ cells in the DG after CSDS” value is “preserved normal levels of neurogenesis throughout both dorsal and ventral regions of the DG”. Also, the “BrdU or AC3 immunoreactivity in the DG” value in data set [3] (non-stressed control animals) is “did not significantly augment BrdU or AC3 immunoreactivity”.

As a reminder, the half-life is the time in which the quantity being followed falls by half.
